Assay results as given in article PMC7101335, “Aryl-alkyl-lysines: Novel agents for treatment of C. difficile infection” (Scientific Reports, 2020).
≈ marks a conversion by molar mass, not a printed value. Like-named read-outs stand apart in the source and are kept apart here.

Tests used:
[1] = tested on: human ileocecal colorectal adenocarcinoma cell line (HRT-18); test: Cytotoxicity, MTS assay, HRT-18 cells; format: cell-based; details: HRT-18 cells, 32 µg mL^−1, 2 hours, relative to DMSO
Description: Briefly, ~2 × 10^4 cells suspended in 100 µL of RPMI-1640 supplemented with 10% horse serum were seeded in a 96-well plate and incubated at 37 °C with 5% CO2. The cells were cultured for 24 hours until reaching ~90% confluency. The cells were further incubated with the aforementioned concentrations of the compounds for 2 hours. Afterwards, culture media were discarded and the cells in each well were washed with PBS and 100 µL of cell culture media were added prior to addition of the assay reagent MTS 3-(4,5-dimethylthiazol-2-yl)-5-(3-carboxymethoxyphenyl)-2-(4-sulfophenyl)-2H-tetrazolium) (Promega). The plates were incubated for 4 hours at 37 °C in a humidified 5% CO2 atmosphere. The absorbance was recorded at 490 nm and the corrected absorbance readings (actual absorbance readings for each treatment subtracted from background absorbance) were taken using a kinetic ELISA microplate reader (SpectraMax i3x, Molecular Devices, Sunnyvale, CA, USA). The quantity of viable cells after treatment with each compound was expressed as a percentage of the control, DMSO. Asterisk (*) denotes a significant difference from the DMSO-treated cells using 2-way analysis of variance (ANOVA) followed by Dunnett’s pairwise comparison.

Caco-2 monolayer = test: Caco-2 bidirectional permeability assay; format: in vitro ADME, human; details: Caco-2 bidirectional
Description: (§1) The Caco-2 bidirectional permeability assay was conducted as described in previous reports[29],[30],[41],[42]. The Caco-2 cell line is similar to human enterocytes and expresses P-glycoprotein and other relevant metabolic enzymes that affect absorption of orally-administered xenobiotics across the intestinal mucosa[34],[43],[44]. Caco-2 cells were grown in tissue culture flasks, trypsinized (by rinsing cells with phosphate-buffered saline and then treating with trypsin-EDTA for 5–10 minutes at 37 °C with 5% CO2 until cells detached), suspended in Dulbecco’s Modified Eagle Medium with 10% fetal bovine serum, 1% nonessential amino acids and penicillin-streptomycin, and then seeded onto wells of a Millipore 96-well Caco-2 plate. Cells were cultured at 37 °C with 5% CO2 until confluent (approximately three weeks) and media was changed at relevant time points. For Apical to Basolateral (A → B) permeability, the test article was added to the apical (A) compartment and the amount of permeation (Papp, as calculated below) to the basolateral (B) compartment was determined; for Basolateral to Apical (B → A) permeability, the test article was added to the B compartment and the amount of permeation to the A compartment was determined. […] Caco-2 cells were incubated with these buffers for two hours, and the receiver side buffer was removed for analysis by LC/MS/MS. To verify the tight junctions and integrity of Caco-2 cell monolayers, aliquots of the cell buffers were analyzed by fluorescence (Lucifer yellow transport ≤ 2%). Any deviations from control values are reported. Data are expressed as permeability (Papp) = (dQ/dt)/(C0A) where dQ/dt is the rate of permeation, C0 is the initial concentration of test agent, and A is the area of the monolayer.

[2] = Caco-2 bidirectional permeability assay; format: in vitro ADME, human; details: human, Caco-2, two hours
Description: as §1

human erythrocytes = tested on: human erythrocytes; parameters: method as in PMID 24479371; details: concentration at which 50% of human erythrocytes are lysed; cited from earlier work
Clostridium difficile = test: Broth microdilution MIC against Clostridium difficile strains; format: cell-based; details: Clostridioides difficile
Description: The broth microdilution assay was utilized following the Clinical and Laboratory Standards Institute (CLSI) guidelines with slight modifications. Briefly, C. difficile strains were grown on anaerobic blood agar plates (Becton Dickinson, BD) and suspended in brain heart infusion supplemented broth (Brain heart infusion medium, BD, supplemented with yeast extract, L-cysteine, Vitamin K1 and Hemin, Sigma) to achieve a bacterial concentration of ~10^5 CFU/ml. The bacterial suspension was seeded in 96-well plates containing drugs/compounds, in duplicate, at the required concentration. Plates were then incubated at 37 °C anaerobically for 48 hours. MICs reported are the lowest concentration of each agent that inhibited the visual growth of bacteria.

[3] = tested on: vancomycin-resistant and vancomycin-susceptible strains of Enterococcus; test: Broth microdilution MIC against Enterococcus strains (E. faecalis and E. faecium, summary in text); format: cell-based; details: all E. faecalis and E. faecium strains tested, vancomycin-resistant and -sensitive
E. faecium = test: Broth microdilution MIC against E. faecium strains; format: cell-based; details: Enterococcus faecium, read-out: Minimum inhibitory concentration
E. faecalis = test: Broth microdilution MIC against E. faecalis strains; format: cell-based; details: Enterococcus faecalis, read-out: Minimum inhibitory concentration

CCCCCCCCCCN(Cc1cccc2ccccc12)C(=O)[C@@H](N)CCCCN [NCK-10]
cells survived [1]: 60% | Notes (permeability class) (Caco-2 monolayer): Limited permeability | Papp A→B at 2 h ([2]; apical (pH 6.5) to basolateral (pH 7.4)): < 0.01 ×10⁻⁶ cm/s | Papp B→A at 2 h ([2]; basolateral to apical): 3.26 ×10⁻⁶ cm/s | hemolytic concentration 50 (HC50) (human erythrocytes): 95 µg/mL | MIC (Clostridium difficile; C. difficile Isolate 1 (NR-13427), read-out: Minimum inhibitory concentration): 2 µg/mL (≈ 4.7 µM) | MIC (Clostridium difficile; C. difficile Isolate 2 (NR-13428), read-out: Minimum inhibitory concentration): 1 µg/mL (≈ 2.35 µM) | MIC (Clostridium difficile; C. difficile Isolate 4 (NR-13430), read-out: Minimum inhibitory concentration): 2 µg/mL (≈ 4.7 µM) | MIC (Clostridium difficile; C. difficile Isolate 6 (NR-13432), read-out: Minimum inhibitory concentration): 1 µg/mL (≈ 2.35 µM) | MIC (Clostridium difficile; C. difficile Isolate 9 (NR-13435), read-out: Minimum inhibitory concentration): 1 µg/mL (≈ 2.35 µM) | MIC (Clostridium difficile; C. difficile Isolate 10 (NR-13436), read-out: Minimum inhibitory concentration): 1 µg/mL (≈ 2.35 µM) | MIC (Clostridium difficile; C. difficile P2 (NR-32883), read-out: Minimum inhibitory concentration): 1 µg/mL (≈ 2.35 µM) | MIC (Clostridium difficile; C. difficile P4 (NR-32889), read-out: Minimum inhibitory concentration): 2 µg/mL (≈ 4.7 µM) | MIC (Clostridium difficile; C. difficile P8 (NR-32888), read-out: Minimum inhibitory concentration): 1 µg/mL (≈ 2.35 µM) | MIC (Clostridium difficile; C. difficile P13 (NR-32891), read-out: Minimum inhibitory concentration): 2 µg/mL (≈ 4.7 µM) | MIC (Clostridium difficile; C. difficile P20 (NR-32896), read-out: Minimum inhibitory concentration): 1 µg/mL (≈ 2.35 µM) | MIC (Clostridium difficile; C. difficile P21 (NR-32897), read-out: Minimum inhibitory concentration): 1 µg/mL (≈ 2.35 µM) | MIC (Clostridium difficile; C. difficile P29 (NR-32903), read-out: Minimum inhibitory concentration): 1 µg/mL (≈ 2.35 µM) | MIC (Clostridium difficile; C. difficile strains P8, P13 and Isolate 10): 1 to 2 µg/mL (≈ 2.35 to 4.7 µM) | MIC (Clostridium difficile; across all tested strains of C. difficile): 0.5 to 2 µg/mL (≈ 1.17 to 4.7 µM) | MIC (Clostridium difficile; most strains of C. difficile tested, read-out: MIC): ≤ 1 µg/mL | MIC (Clostridium difficile; read-out: Minimum inhibitory concentration, C. difficile Isolate 5 (NR-13431)): ≤ 0.5 µg/mL | MIC (Clostridium difficile; read-out: Minimum inhibitory concentration, C. difficile P15 (NR-32892)): ≤ 0.5 µg/mL | MIC (Clostridium difficile; the rest of the C. difficile strains): 1 µg/mL (≈ 2.35 µM) | MIC [3]: ≤ 2 µg/mL | MIC (E. faecium; E. faecium E417 (vancomycin-resistant)): < 1 µg/mL | MIC (E. faecium; E. faecium E1071): 2 µg/mL (≈ 4.7 µM) | MIC (E. faecium; E. faecium UAA714): 2 µg/mL (≈ 4.7 µM) | MIC (E. faecalis; E. faecalis B3196): 2 µg/mL (≈ 4.7 µM) | MIC (E. faecalis; E. faecalis B3286): 2 µg/mL (≈ 4.7 µM) | MIC (E. faecalis; E. faecalis B3336): 2 µg/mL (≈ 4.7 µM) | MIC (E. faecalis; E. faecalis SF24397): 2 µg/mL (≈ 4.7 µM) | MIC (E. faecalis; E. faecalis SF28073 (vancomycin-resistant)): 2 µg/mL (≈ 4.7 µM)
